The structures appear in SMILES notation. Activity calls are given as the source filed them.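 Rule for the calls: active = mean IC50 for reducing PEG3 promoter reporter signal at or below a set limit, with IC50 above the limit in both counter screens; inactive = the rest, including counter screen hits.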 Some results are limits rather than exact numbers.

Assay [1] concerns the target PEG-3 (UniProt Q6IN02). Briefly: Peg3 promoter luciferase inhibitors, potency, dose response, cell-based, HeLa, CREF/GAPDH counter-screen panel (AID 624167). As to conditions: HeLa PEG-Prom luciferase reporter, overnight, CREF/GAPDH counter-screens, mean of runs.
The test system of assay [2] is PEG-3. The assay is described as above. As to conditions: HeLa PEG-Prom luciferase reporter, overnight, CREF/GAPDH counter-screens. (In general: In a reporter assay the amount or activity of a reporter protein is the signal.)
Setting [3] is: run 1, dose range 1, individual replicate IC50 per panel.
The mark [4] stands for this setting: run 2, dose range 1, individual replicate IC50 per panel.

Sequence of PEG-3 (UniProt Q6IN02) (Q6IN02 whole entry, looked up): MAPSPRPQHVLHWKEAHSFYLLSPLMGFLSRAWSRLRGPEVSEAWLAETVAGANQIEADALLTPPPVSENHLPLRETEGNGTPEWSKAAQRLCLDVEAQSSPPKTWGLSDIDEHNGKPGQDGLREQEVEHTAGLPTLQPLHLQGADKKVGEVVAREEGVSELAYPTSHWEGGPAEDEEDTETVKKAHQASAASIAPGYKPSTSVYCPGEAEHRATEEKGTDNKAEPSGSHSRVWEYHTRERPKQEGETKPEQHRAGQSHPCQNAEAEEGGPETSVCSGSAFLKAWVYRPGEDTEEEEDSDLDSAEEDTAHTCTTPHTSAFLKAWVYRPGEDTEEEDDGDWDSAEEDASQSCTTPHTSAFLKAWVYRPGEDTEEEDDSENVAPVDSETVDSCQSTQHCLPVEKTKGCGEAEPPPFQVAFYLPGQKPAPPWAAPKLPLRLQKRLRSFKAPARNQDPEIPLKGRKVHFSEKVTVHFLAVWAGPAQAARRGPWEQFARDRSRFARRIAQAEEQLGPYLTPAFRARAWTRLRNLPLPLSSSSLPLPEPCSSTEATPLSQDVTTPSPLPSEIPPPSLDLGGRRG

In general, IC50 refers to the point on the concentration scale where inhibition reaches its midpoint. For `COc1cccc(-c2nnc3n2N=C(C(C)(C)C)CS3)c1`, the IC50 in assay [1] was 17.8 µM; in assay [2] (setting [3]), 14.1 µM; in assay [2] (setting [4]) it was 21.5 µM.

In the case of `CN(C)CC1CCC/C(=C/c2ccc(Cl)cc2)C1=O` (stereo unspecified), the IC50 in assay [1] is 11.1 µM; in assay [2] (setting [3]), 14.5 µM; in assay [2] (setting [4]) it was 7.74 µM.

On to `CCN(CC)c1ccc2nc3ccc(N)cc3[n+](-c3ccccc3)c2c1`, for which the figures for the IC50 in assay [1], in assay [2] (setting [3]) and in assay [2] (setting [4]) were 11.1 µM, 9.95 µM and 12.2 µM, respectively.

As to `COC(=O)CSC1=NS(=O)(=O)c2ccccc21`, the IC50 entry in assay [1] is “inactive”. The figures for the IC50 in assay [2] (setting [3]) and in assay [2] (setting [4]) were > 100 µM and 33.5 µM, respectively.

`COc1ccc(CCNC(=O)C(=O)NCC2CCCN2S(=O)(=O)c2ccccc2)cc1OC` (stereo unspecified): in assay [1], the IC50 result was “inactive”. Besides, the values for the IC50 in assay [2] (setting [3]) and in assay [2] (setting [4]) were 29.8 µM and 39.3 µM, respectively.

In the case of `COc1ccc(OC)c(Cc2cnc3nc(N)nc(N)c3c2C)c1`, the IC50 entry in assay [1] was “inactive”. Moreover, the IC50 in assay [2] (setting [3]) was 48.7 µM; in assay [2] (setting [4]), 1.36 µM.

In the case of `CC(C)(C)OC(=O)CC(S(=O)(=O)c1ccccc1)S(=O)(=O)c1ccccc1`, the IC50 in assay [1] was 14.3 µM; in assay [2] (setting [3]) it was 21 µM; in assay [2] (setting [4]), 7.58 µM.

For `CCCN(CC(=O)Nc1ccccc1C)C(=O)CCl`, the IC50 entry in assay [1] was “inactive”. The IC50 was 56.1 µM in assay [2] (setting [3]) and > 100 µM in assay [2] (setting [4]).

In the case of `CSc1ccc(CN(C)C(=O)C(Cc2ccccc2)NC(=O)c2ccccc2)cc1` (stereo unspecified), the IC50 entry in assay [1] was “inactive”. Also, the IC50 in assay [2] (setting [3]) was determined as 21.3 µM; in assay [2] (setting [4]) it was 24.4 µM.

Take `Cc1ccc(N2CC(C(=O)Nc3nccs3)CC2=O)cc1Cl` (stereo unspecified): the IC50 result in assay [1] was “inactive”. Also, the results for the IC50 in assay [2] (setting [3]) and in assay [2] (setting [4]) were 33 µM and 10.5 µM, respectively.

For the compound `O=C1CSC(=S)N1Cc1cccnc1`, the values for the IC50 in assay [1], in assay [2] (setting [3]) and in assay [2] (setting [4]) were 17.9 µM, 28.3 µM and 7.51 µM, respectively.

`Nc1nc(CCl)nc(Nc2cccc3ccccc23)n1`: the IC50 in assay [1] was > 100 µM (inactive); in assay [2] (setting [3]), > 100 µM; in assay [2] (setting [4]) it was > 100 µM.

As for `CN1Cc2c(N3CCOCC3)nc3sc(C(=O)c4ccc(Br)cc4)c(N)c3c2CC1(C)C`, the IC50 in assay [1] was 15.2 µM; in assay [2] (setting [3]), 18.8 µM; in assay [2] (setting [4]), 11.6 µM.

For `CC1=C(CC[C@@H](C)CO)OC2CC3C4CCC5CC(O)CCC5(C)C4CC(=O)C3(C)C12` (stereo partly specified), the IC50 result in assay [1] was “inactive”. The half-inhibitory concentration (IC50) in assay [2] (setting [3]) was found to be 24.7 µM; in assay [2] (setting [4]) it was 64.2 µM.

Take `CCc1ccc(NC(=O)CSc2nc3ccccc3c(=O)n2CCCN2CCC(C)CC2)cc1`: the figures for the IC50 in assay [1], in assay [2] (setting [3]) and in assay [2] (setting [4]) were 17.3 µM, 19.8 µM and 14.8 µM, respectively.

As to `C[C@@H]1[C@H]2[C@@H]3CC[C@@H](C3)[C@H]2CN[C@H]1c1cn(Cc2ccccc2)c2ccccc12`, the IC50 result in assay [1] is “inactive”. For the same compound, the IC50 is 39 µM in assay [2] (setting [3]) and 42.7 µM in assay [2] (setting [4]).

Take `O=c1c2ccccc2nc(CSc2ncnc3nc[nH]c23)n1-c1ccc(Cl)c(Cl)c1`: in assay [1], the IC50 entry is “inactive”. Also, the IC50 in assay [2] (setting [3]) is 8.77 µM; in assay [2] (setting [4]), > 100 µM.

In the case of `Oc1[nH]c2ccc(Br)cc2c1N=NC(=S)Nc1ccc(F)cc1`, the IC50 in assay [1] was 19.3 µM; in assay [2] (setting [3]) it was 10.5 µM; in assay [2] (setting [4]), 28.1 µM.

Turning to `O=C(CCl)Nc1cccc(-c2cnc3ccccc3n2)c1`, the IC50 result in assay [1] is “inactive”. Besides, the IC50 in assay [2] (setting [3]) was > 100 µM; in assay [2] (setting [4]), 13.2 µM.

Consider `Cc1ccc(-c2cc(-c3ccc(C)cc3)[n+](-c3ccccc3)c(-c3ccc(C)cc3)c2)cc1`, for which the IC50 in assay [1] was > 100 µM (inactive); in assay [2] (setting [3]), > 100 µM; in assay [2] (setting [4]), > 100 µM.

`CC(=O)Nc1cccc(NC(=O)c2cc(-c3cccnc3)nc3ccc(Cl)cc23)c1`: in assay [1], the IC50 result was “inactive”. Moreover, the IC50 in assay [2] (setting [3]) stood at 50.2 µM; in assay [2] (setting [4]), 59.2 µM.

Turning to `COCCn1c(C)cc(C(=O)COC(=O)c2ccccc2Br)c1C`, the IC50 result in assay [1] was “inactive”. Also, the IC50 in assay [2] (setting [3]) is 32.1 µM; in assay [2] (setting [4]), 53.3 µM.

For the origin of these results see PubChem BioAssay AID624167 (Sanford-Burnham Center for Chemical Genomics, 2012).
